The record followed here is patent US12590340B2, “Microfluidic plasmonic color reading chips and methods” (priority 2021, dated 2026).

Test [1] relates to Ampicillin resistant Escherichia coli strain. Kind of test: antibiotic susceptibility profiling by resazurin color change on the plasmonic microfluidic chip. The test is classed as cell-based. To be noted: for increase in green value of the 1-hour incubated aliquots compared to the zero minute incubation aliquot: 100 μg/mL ampicillin, 37° C.; for constant green value throughout the 1-hour incubation: 50 μg/mL kanamycin. The protocol: Ampicillin resistant Escherichia coli strain (Amp resistant E. coli, #211540, Merlan scientific, Ontario, Canada) was cultured overnight at 37° C. in Luria broth (LB) media supplemented with 100 μg/mL Ampicillin (#216858, Merlan scientific, Ontario, Canada). Next, the bacterial concentration was determined by optical density technique using a Spectronic 21D spectrophotometer. Subsequently, aliquots of different concentrations were prepared for the antibiotic susceptibility testing experiments.
(§1) Resistant E. coli, MRSA, and Cipro. Resistant PA respectively was used. The aliquots were incubated at 37° C. for different periods of time starting from 0 minutes incubation to a 60 minutes with a time step of 5 minutes. For susceptible bacterial samples, aliquots of Amp resistant E. coli were prepared (5×10^5 CFU/mL, 10^3 CFU/mL, 10^2 CFU/mL, and 50 CFU/mL), MRSA (5×10^5 CFU/mL), and Cipro. Resistant PA (5×10^5 CFU/mL). […] Resistant E. coli, MRSA, and Cipro. Resistant PA respectively was used. The aliquots were incubated at 37° C. different periods starting from 0 minutes incubation till 60 minutes with a time step of 5 minutes.
(§2) To rapidly detect the sample color change on the platform the reflectance spectra was measured using a Lambda 750 UV/Vis/NIR Spectrophotometer (PerkinElmer). The incident and collected light beams had normal incidence to the platform. Further, optical imaging was performed under highly controlled environment using Nikon Eclipse LV150 (Nikon) with a ×100, 0.9 NA air objective and Nikon digital sight ds-fi1 CCD camera with a white reference of R:0.75 G:1.0 B:2.36.51.
(§3) The microfluidic chip used was similar to that illustrated in FIG. 1B, having two characteristic chambers 1) antibiotic infusing chamber (AI) 103 equipped with bacteria entrapping micropillars 104p; and 2) plasmonic color-sensitive chamber (PCS) 105. The operational procedure of the microfluidic chip was to inject the bacteria containing growth media along with an antibiotic of interest and 0.02% resazurin solution from the inlet to get mixed in the Al mixing and entrapment chamber. Microfluidic chips were incubated for one hour through time intervals of 5 minutes. After incubation, the liquid in the Al chamber 103 was pushed towards the PCS chamber 105 sensing chamber while the bacteria was entrapped behind the micropillars 104p.
To conveniently convert the microscopy results to the feasible CIE color gamut, each picture of the data set loaded to MATLAB was read as a 3 layer matrix, each pixel has 3 components, one per layer, corresponding to its R, G and B value. The processing involved image crop and a sample selection. A simple average calculation was run individually to get an overall value for R, G and B components for each of the 5 samples generated. Following that, the mean across the collection was calculated. The error bar was computed at 1 standard deviation.
All images were processed and analyzed through a MATLAB™ script which allowed the analysis of multiple images simultaneously. The TIFF files were loaded and cropped to 80% of their original dimensions to avoid the coffee-ring effect. An option for the manual crop was also available. For each image, five samples of 480×480 pixels were randomly selected. Subsequently, for each the R, G and B values were averaged followed by the calculation of the mean RGB value and error across them. Succeeding their conversion to XYZ and x, y color systems. The RGB values of each image with its corresponding error bar were plotted against time. Additionally, the x and y values were scattered on the CIE1931 color space to analyze the color change through time.
(The colour change of resazurin is a common sign of viable cells or microbes.)

Test [2] relates to Amp. Resistant E. coli. Kind of test: antibiotic susceptibility study in spiked human urine on the chip. The test is classed as cell-based, Escherichia coli. The method, then:
For the spiked human sample experiment, human urine was centrifuged at 5000 rcf for 5 minutes to remove large particles. It was subsequently spiked with 5×10^5 CFU/mL and mixed with a solution of resazurin to a final concentration of 0.02%. No antibiotics were added for the control aliquots, 100 μg/mL ampicillin was added for resistant aliquots and 50 μg/mL Kanamycin was added for susceptible aliquots. The aliquots were incubated at 37° C. different periods starting from 0 minutes incubation till 60 minutes with a time step of 5 minutes.
FIGS. 11A-11F show the results of an antibiotic susceptibility study conducted using human urine spiked with Amp. Resistant E. coli to a final concentration of 5×10^5 CFU/mL. The study utilized 3 aliquot sets of control (no antibiotic), resistant (100 μg/mL Ampicillin), and susceptible (50 μg/mL Kanamycin). […] The trend is highlighted with a white arrow on the 2D chromaticity diagram in FIG. 11B. […] are web plots of the red, green, and blue values analyzed from the bright-field microscopy of the sets. […] Green values increased overtime in the control and resistant sets (88 to 122 for resistant and 82 to 117 for control) showing the change towards green color and indicating the reduction of resazurin to resorufin by viable bacterial cells. […] Resistant E. coli.

In test [3] the test system is Amp. Resistant E. coli. The test can be described thus: antibiotic susceptibility study in spiked whole blood on the chip. In kind it is cell-based, Escherichia coli. Particulars: 100, 50, 20 CFU/mL, 32 μg/mL Ampicilin, up to 150 minutes. The protocol:
For the spiked human sample experiment, human whole blood was centrifuged in two steps first at 150 rcf for 10 minutes followed by 7000 rcf for 3 min. It was subsequently spiked with 100, 50 or 20 CFU/mL and mixed with a solution of resazurin to a final concentration of 0.01%. No antibiotics were added for the control aliquots, 32 μg/mL ampicillin was added for resistant aliquots and 16 μg/mL kanamycin was added for susceptible aliquots. The aliquots were incubated at 37° C. different periods starting from 0 minutes incubation till 150 minutes with a time step of 5 minutes.
FIGS. 12A-12B show the results of an antibiotic susceptibility study conducted using whole blood spiked with Amp. Resistant E. coli to a final concentration of 100, 50, 20 CFU/mL in the presence of 32 μg/mL Ampicilin. […] The mean Gvalue/Bvalue (a) can be a credible parameter to follow the sequence in the color change and translate it to a quantifiable data FIG. 12B. […] Quantifiably, the time in which the α-value undergoes a step levitation is corresponding to the time the color transition is visible to the naked eye.

Test [4] relates to MRSA. The test can be described thus: antibiotic susceptibility profiling by resazurin color change on the plasmonic microfluidic chip. In kind it is cell-based, Staphylococcus aureus. To be noted: 5×10^5 CFU/mL, 4 ug/mL Oxacillin; for color response over 1-hour incubation (resistant / susceptible): 1 ug/mL Ciprofloxacin. The method, then: as §1, §2
The microfluidic chip used was similar to that illustrated in FIG. 1B, having two characteristic chambers 1) antibiotic infusing chamber (AI) 103 equipped with bacteria entrapping micropillars 104p; and 2) plasmonic color-sensitive chamber (PCS) 105. The operational procedure of the microfluidic chip was to inject the bacteria containing growth media along with an antibiotic of interest and 0.02% resazurin solution from the inlet to get mixed in the Al mixing and entrapment chamber. Microfluidic chips were incubated for one hour through time intervals of 5 minutes. […]
(§4) To conveniently convert the microscopy results to the feasible CIE color gamut, each picture of the data set loaded to MATLAB was read as a 3 layer matrix, each pixel has 3 components, one per layer, corresponding to its R, G and B value. […] Following that, the mean across the collection was calculated. […]
(§5) All images were processed and analyzed through a MATLAB™ script which allowed the analysis of multiple images simultaneously. […]

Test [5] deals with Cipro. Resistant PA. Described as above. To be noted: 5×10^5 CFU/mL; 2 ug/mL Ciprofloxacin, 4 ug/mL Gentamicin. The test is classed as cell-based, Pseudomonas aeruginosa. The protocol:
as §1
To rapidly detect the sample color change on the platform the reflectance spectra was measured using a Lambda 750 UV/Vis/NIR Spectrophotometer (PerkinElmer). The incident and collected light beams had normal incidence to the platform. […]
as §4, §5

Test [6] relates to Cipro. Resistant PA. Particulars: 60 minutes, 5×10^5 CFU/mL.
Text: as §3

The next test deals with Amp resistant E. coli. Kind of test: minimum inhibitory concentration (MIC) study with resazurin on the chip. Particulars: for y-value: 60 minutes, 5×10^5 CFU/mL.
In test [7] the test system is MRSA. The test can be described thus: standard MIC assay using CLSI protocols. The test is classed as cell-based, Staphylococcus aureus. Particulars: 96 well plate, overnight culture; 5×10^5 CFU/mL. The method, then:
For the Clinical & Laboratory Standards Institute (CLSI) MIC protocol bacteria were streaked on LB agar overnight and resuspended in water aliquot. The aliquot was measured, and the bacteria concentration was adjusted to 10^6 CFU/mL in LB media. A 96 well plate with an antibiotic gradient from 128 μg/ml to 0.125 μg/ml in a 2-fold concentration dilution step was prepared with a positive control with no antibiotics. Next, the bacteria were introduced to each well of the 96 well plate for a final bacteria concentration of 5×10^5 CFU/mL. The well plates were cultured overnight.

The subject of test [8] is MRSA. The test can be described thus: minimum inhibitory concentration (MIC) study with resazurin on the chip. Particulars: for y-value: 60 minutes, 5×10^5 CFU/mL.
[9] abbreviates: 5×10^5 CFU/mL, 100 μg/mL Ampicillin, 50 μg/mL Kanamycin.

Converted amounts (≈) assume the structure as drawn. “Also recorded” adds a separate entry of the source. Like-named read-outs stand apart in the source and are kept apart here.

As to `CC1(C)S[C@@H]2[C@H](NC(=O)[C@H](N)c3ccccc3)C(=O)N2[C@H]1C(=O)O` [Ampicillin], in [1] (100 μg/mL Ampicillin, 5×10^5 CFU/mL), the “increase of y values (2D chromaticity diagram) over 1-hour incubation, control and resistant aliquots” value lay in the range of 0.19 to 0.33. Further, the “increase in green value of the 1-hour incubated aliquots compared to the zero minute incubation aliquot” value is 194% in test [1] (5×10^5 CFU/mL), 142% in test [1] (10^2 CFU/mL), 140% in test [1] (10^3 CFU/mL) and 131% in test [1] (50 CFU/mL). Also, the “color response over 1-hour incubation (resistant / susceptible)” value in test [1] (setting [9]) was “color change from initial dark blue to green; also recorded: color-change from navy blue to green”. In addition, in the test on Amp. Resistant E. coli [2] (100 μg/mL Ampicillin, 1-hour incubation), the “increase of green values over time (resistant set)” value is recorded as 88 to 122. Besides, in the test with Amp. Resistant E. coli [2] (100 μg/mL Ampicillin, 5×10^5 CFU/mL, 1-hour incubation), the “increase in the y-value over time (resistant aliquots)” value was 0.22 to 0.34. In the test with Amp. Resistant E. coli [2] (setting [9]), the “color response over 1-hour incubation” value is given as “color change trend from dark blue at zero-minute incubation towards cyan; also recorded: color-change from navy blue to green”. The color response entry in the test on Amp. Resistant E. coli [3] is on record as “color change trend from dark blue at zero-minute incubation towards cyan”.
As for `O=C(O)c1cn(C2CC2)c2cc(N3CCNCC3)c(F)cc2c1=O` [Ciprofloxacin], the “color response over 1-hour incubation (resistant / susceptible)” value in the test with MRSA [4] was “constant dark blue color; also recorded: susceptible”; in the test on Cipro. Resistant PA [5] it was “color change from initial dark blue to green; also recorded: resistant”. For the same compound, the figures for the y-value in the test with Cipro. Resistant PA [6] (8 μg/mL Ciprofloxacin), in the test on Cipro. Resistant PA [6] (16 μg/mL Ciprofloxacin) and in the test on Cipro. Resistant PA [6] (32 μg/mL Ciprofloxacin) were 0.38, 0.125 and 0.175, respectively.
For `NC[C@H]1O[C@H](O[C@H]2[C@H](O)[C@@H](O[C@H]3O[C@H](CO)[C@@H](O)[C@H](N)[C@H]3O)[C@H](N)C[C@@H]2N)[C@H](O)[C@@H](O)[C@@H]1O` [Kanamycin], the “constant green value throughout the 1-hour incubation” value in test [1] (5×10^5 CFU/mL) was 49.26±5.32; in test [1] (10^2 CFU/mL) it was 47.28±1.93; in test [1] (10^3 CFU/mL), 48.12±3.21; in test [1] (50 CFU/mL) it was 46.15±2.56; in the test on Amp. Resistant E. coli [2] (50 μg/mL Kanamycin) it was 76.8±4.5. In the test on Amp. Resistant E. coli [2] (50 μg/mL Kanamycin), the “constant blue value throughout the 1-hour incubation” value turned out to be 138.7±5.3. For the same compound, the “constant red value throughout the 1-hour incubation” value in the test on Amp. Resistant E. coli [2] (50 μg/mL Kanamycin) came out at 56.6±4.7. Moreover, the “y-value, constant (susceptible set)” value with Amp. Resistant E. coli [2] (50 μg/mL Kanamycin, 5×10^5 CFU/mL, 1-hour incubation) stood at 0.205±0.025. Besides, the y-value in the test with Amp resistant E. coli (4 μg/mL kanamycin) was 0.3; with Amp resistant E. coli (8 μg/mL kanamycin), 0.125; with Amp resistant E. coli (16 μg/mL kanamycin), 0.175. Also, the MIC in the test on Amp resistant E. coli (Escherichia coli, 1 h, read-out: minimum inhibitory concentration (MIC)) was 8 µg/mL (≈ 16.5 µM).
As for `Cc1onc(-c2ccccc2)c1C(=O)N[C@@H]1C(=O)N2[C@@H]1SC(C)(C)[C@@H]2C(=O)O` [Oxacillin], the “increase of y values (2D chromaticity diagram) over 1-hour incubation, control and resistant aliquots” value in the test with MRSA [4] is on record as 0.16 to 0.33. The “color response over 1-hour incubation (resistant / susceptible)” value in the test with MRSA [4] is given as “color change from initial dark blue to green; also recorded: resistant”. In addition, in the test with MRSA [7], the “MIC by standard MIC assay using CLSI protocols, compared with chip MIC” value was “confirmed the obtained MIC”. Also, the “inhibition of MRSA metabolism (color change from purple to cyan)” value with MRSA [8] (16 μg/mL Oxacillin dose) is on record as “not enough to fully inhibit”. The figures for the y-value in the test on MRSA [8] (16 μg/mL Oxacillin), in the test on MRSA [8] (32 μg/mL Oxacillin) and with MRSA [8] (64 μg/mL Oxacillin) were 0.3, 0.125 and 0.13, respectively. Besides, the MIC with MRSA [8] (Staphylococcus aureus, MRSA, 1 h, read-out: minimum inhibitory concentration (MIC)) is 32 µg/mL (≈ 79.7 µM). For the same compound, the “category according to the CLSI breakpoints” value with MRSA [8] (from MIC) is recorded as “resistant”.
Turning to Gentamicin, the “color response over 1-hour incubation (resistant / susceptible)” value in the test on Cipro. Resistant PA [5] is reported as “constant dark blue color; also recorded: susceptible”.
